According to patent publication US20220064167A1, “IMIDAZO-PYRAZOLE CARBOXAMIDE DERIVATIVES AS ANTICANCER AGENTS AND THE SYNTHESIS THEREOF” (AVIDIN KFT., priority 2018, published 2022):

How the values were obtained:
[1] = tested on: human breast adenocarcinoma cell line, MCF-7; experiment: resazurin viability assay, 72 h (Table 1); type: cell-based; conditions: MCF7, 72h incubation, 156 nM-100 μM
Source text: (§1) In our experiments three different cell lines were used. Cells were purchased from the American Type Culture Collection (ATCC, Manassas, Va., USA). The human breast adenocarcinoma cell line, MCF-7 cells were maintained in Dulbecco's Modified Eagle Medium/Nutrient Mixture F-12 (DMEM/F12) 10% fetal calf serum (FCS, Gibco) and mouse mammary carcinoma 4T1 and human promyelocytic leukemia, HL-60 cells were maintained in Roswell Park Memorial Institute 1640 medium (RPMI-1640) 10% FCS. Media were supplemented with 2 mM GlutaMAX, and 100 U/mL penicillin, 100 μg/mL streptomycin (Life Technologies, Carlsbad, Calif., USA). Cell cultures were maintained at 37° C. in a humidified incubator in an atmosphere of 5% CO2 (Sanyo, Japan).
(§2) For viability assays cells were seeded in 96 well plates (MCF7 and 4T1: 6000, HL60: 120.000 cells/well) and incubated overnight. Compounds were dissolved in dimethyl sulfoxide (DMSO). Cells were treated with an increasing concentration of compounds having the general formula (I.) (156 nM-100 μM). Cell viability was determined after 72h incubation. Resazurin reagent (Sigma-Aldrich) was dissolved in PBS (pH 7.4) at 0.15 mg/ml concentration, sterile filtered (0.22 μm, Merck Millipore) and aliquoted at −20° C. Resazurin reagent (Sigma-Aldrich) was added at a final concentration of 25 μg/ml. After 2 hours incubation at 37° C. 5% CO2 fluorescence (530 nm excitation/580 nm emission) was recorded on a multimode microplate reader (Cytofluor4000, PerSeptive Biosytems). Viability was calculated with relation to untreated control cells and blank wells containing media without cells. IC50 values (50% inhibiting concentration) were calculated by GraphPad Prism® 5 (La Jolla, Calif., USA).

[2] = tested on: human promyelocytic leukemia, HL-60 cells; experiment: resazurin viability assay, 72 h (Table 1); type: cell-based; conditions: 72h incubation, 156 nM-100 μM
Source text: as §1, §2

[3] = tested on: mouse mammary carcinoma 4T1; experiment: resazurin viability assay, 72 h (Table 1); type: cell-based; conditions: 72h incubation, 156 nM-100 μM
Source text: as §1, §2

Row | SMILES | IC50 [1] | IC50 [2] | IC50 [3] | melting point
1 | CC(C)(C)CC(C)(C)Nc1c(C(C)(C)C)[nH]c2c(C(=O)NC3CC3)cnn12 [Example 31, 2-(Tert-butyl)-N-cyclopropyl-3-((2,4,4-trimethylpentan-2-yl)amino)-1H-imidazo[1,2-b]pyrazole-7-carboxamide] | 1690 nM | 1610 nM | 4010 nM | 161 °C
2 | CC(C)(C)CC(C)(C)Nc1c(C(C)(C)C)[nH]c2c(C(=O)NCc3ccccc3)cnn12 [Example 33, N-Benzyl-2-(tert-butyl)-3-((2,4,4-trimethylpentan-2-yl)amino)-1H-imidazo[1,2-b]pyrazole-7-carboxamide] | 8570 nM | 6260 nM | 9310 nM | 118 to 119 °C
3 | CC(C)(C)CC(C)(C)Nc1c(C(C)(C)C)[nH]c2c(C(=O)Nc3ccccc3)cnn12 [Example 34, 2-(Tert-butyl)-N-phenyl-3-((2,4,4-trimethylpentan-2-yl)amino)-1H-imidazo[1,2-b]pyrazole-7-carboxamide] | 18300 nM | 604 nM | 28500 nM | 147 °C
4 | CC(C)(C)CC(C)(C)Nc1c(C(C)(C)C)[nH]c2c(C(=O)Nc3ccncc3)cnn12 [Example 37, 2-(Tert-butyl)-N-(pyridin-4-yl)-3-((2,4,4-trimethylpentan-2-yl)amino)-1H-imidazo[1,2-b]pyrazole-7-carboxamide] | 2550 nM | 2710 nM | 4340 nM | 185 to 186 °C
5 | CC(C)(C)CC(C)(C)Nc1c(C(C)(C)C)[nH]c2c(C(=O)Nc3ccon3)cnn12 [Example 39, 2-(Tert-butyl)-N-(isoxazol-3-yl)-3-((2,4,4-trimethylpentan-2-yl)amino)-1H-imidazo[1,2-b]pyrazole-7-carboxamide] | 1700 nM | 935 nM | 2850 nM | 185 to 186 °C
6 | Cc1ccccc1NC(=O)c1cnn2c(NC(C)(C)CC(C)(C)C)c(C(C)(C)C)[nH]c12 [Example 40, 2-(Tert-butyl)-N-(o-tolyl)-3-((2,4,4-trimethylpentan-2-yl)amino)-1H-imidazo[1,2-b]pyrazole-7-carboxamide] | 30600 nM | 2120 nM | > 50000 nM | 172 °C
7 | COc1ccc(NC(=O)c2cnn3c(NC(C)(C)CC(C)(C)C)c(C(C)(C)C)[nH]c23)cc1 [Example 43, 2-(Tert-butyl)-N-(4-methoxyphenyl)-3-((2,4,4-trimethylpentan-2-yl)amino)-1H-imidazo[1,2-b]pyrazole-7-carboxamide] | 17800 nM | 1110 nM | 24700 nM | 187 to 188 °C

Second part, the molecule after the results:

Row | IC50 [1] | IC50 [2] | IC50 [3] | melting point | SMILES
8 | 8350 nM | 4380 nM | 6910 nM | 144 to 145 °C | CC(C)(C)CC(C)(C)Nc1c(C(C)(C)C)[nH]c2c(C(=O)Nc3ccccn3)cnn12 [Example 35, 2-(Tert-butyl)-N-(pyridin-2-yl)-3-((2,4,4-trimethylpentan-2-yl)amino)-1H-imidazo[1,2-b]pyrazole-7-carboxamide]
9 | 1900 nM | 934 nM | 2590 nM | 186 to 187 °C | CC(C)(C)CC(C)(C)Nc1c(C(C)(C)C)[nH]c2c(C(=O)Nc3cccnc3)cnn12 [Example 36, 2-(Tert-butyl)-N-(pyridin-3-yl)-3-((2,4,4-trimethylpentan-2-yl)amino)-1H-imidazo[1,2-b]pyrazole-7-carboxamide]
10 | 1950 nM | 2860 nM | 2410 nM | 125 to 127 °C | CC(C)(C)CC(C)(C)Nc1c(C(C)(C)C)[nH]c2c(C(=O)Nc3nccs3)cnn12 [Example 38, 2-(Tert-butyl)-N-(thiazol-2-yl)-3-((2,4,4-trimethylpentan-2-yl)amino)-1H-imidazo[1,2-b]pyrazole-7-carboxamide]
